From the NIST ThermoML archive (doi:10.1016/j.jct.2017.07.004)

Columns and labels:
[1] = 100 kPa, Liquid; for viscosity: Concentric cylinders viscometry; for mass density: Vibrating tube method
[2] = xn = mol fraction of the nth substance listed; conditions: 100 kPa, Liquid, x2 = 0; for viscosity: Concentric cylinders viscometry; for mass density: Vibrating tube method

CCCC(C)O (configuration not stated) [pentan-2-ol]
[1]
Conditions	viscosity [mPa·s]
298.15 K	3.32
303.15 K	2.81
308.15 K	2.37
313.15 K	1.99
318.15 K	1.66
323.15 K	1.39

CC(C)O [propan-2-ol] + CCC=O
[2]
Conditions	mass density [kg/m3]	viscosity [mPa·s]
293.15 K	785.4	2.42
298.15 K	781.1	2.08
303.15 K	776.8	1.8
308.15 K	772.4	1.56
313.15 K	768	1.36
318.15 K	763.4	1.19
323.15 K	758.8	1.05

CCC(C)O (configuration not stated) [butan-2-ol] + CCC=O
[2]
Conditions	mass density [kg/m3]	viscosity [mPa·s]
293.15 K	806.7	3.67
298.15 K	802.7	3.04
303.15 K	798.4	2.54
308.15 K	794.1	2.13
313.15 K	789.8	1.8
318.15 K	785.2	1.54
323.15 K	780.6	1.33

CCCC(C)O (configuration not stated) [pentan-2-ol] + CCC=O
[2]
Conditions	mass density [kg/m3]	viscosity [mPa·s]
293.15 K	809.3	3.97
298.15 K	805.3	3.32
303.15 K	801.2	2.81
308.15 K	797	2.37
313.15 K	792.7	1.99
318.15 K	788.4	1.66
323.15 K	784	1.39

CCC=O [propanal]
[1]
Conditions	mass density [kg/m3]	viscosity [mPa·s]
293.15 K	802.4	0.34
298.15 K	796.2	0.33
303.15 K	790.3	0.31
308.15 K	784.5	0.3
313.15 K	779	0.28
318.15 K	773.5	0.27
323.15 K	768.2	0.25
